# Measured values as given in patent US9943613B2 (priority 2012, dated 2018).
# Assays:
# rabbit stifle joints = experiment: Single intra-articular injection toxicity model in rabbit stifles; assay type: in vivo, New Zealand White rabbits; settings: for Synovial inflammation scoring: versus PBS-injected stifles, FIG. 7
# Description: Rabbits were euthanized two weeks post-injection. Both left and right stifles were harvested and immediately fixed in 10% neutral buffered formalin, then set for histological processing. Five-micron thick slides from each knee were stained with Hematoxylin & Eosin and Safranin-O.
# [1] = test system: RES-LTC chondrosarcoma cell line; experiment: Modified MTT assay for metabolic activity; assay type: cell-based; settings: 48 hour timepoint; for MTT metabolic activity: FIG. 3
# Procedure: Assays: Modified MTT assay for metabolic activity (absorbance).
# (§1) Assay data analysis: Expressed as % of the positive controls for MTT and picogreen. MTT absorbance measures then normalized to the μgDNA/ml generated by the picogreen assay.
# (§2) Cell cultures: RES-LTC chondrosarcoma cell line. Expresses hyaline-like chondrocyte phenotype and reliably produces large, homogeneous cell populations
# (§3) Cell cultures in 96 well plates. Each compound, at a fixed concentration, was added in triplicate for each assay. MTT and picogreen assays in separate plates (assays interfere with each other). All plates treated together. Assays run at 48 hour timepoint. Microscopy performed to confirm findings.
# [2] = test system: glycosaminoglycans (GAG) in the cartilage; experiment: T1 value map versus Safranin-O/fast green histology of cartilage-bone plug equilibrated in contrast agent (GAG targeting); settings: human tibial plateau cartilage-bone plug equilibrated in contrast agent
# Description: Cartilage-bone plug excised from a human tibial plateau that was retrieved from total knee replacement surgery was equilibrated in DAB-4 linked nitroxide citrate. T1 value map (as acquired for FIG. 1) is compared to histology in FIG. 2: • a) T1 value map: orange color is lower T1 value indicating more contrast agent and more glycosaminoglycans (GAG) in the cartilage. • b) Histology of the same specimen stained with Safranin-O/fast green.
# [3] = test system: RES-LTC chondrosarcoma cell line; experiment: Quantitative picogreen assay for cell proliferation; assay type: cell-based; settings: 10 mM, 48 hour timepoint, FIG. 4
# Procedure: Quantitative picogreen for cell proliferation (μgDNA/ml).
# as §1, §2, §3
# human knee = settings: 10 minutes after intraarticular injection of 25 ml of 5 mM solution in PBS, 3 Tesla, FIG. 9
# Procedure: Coronal T1-weighted MR images of a human knee were taken in a human cadaver. Coronal T1-weighted MR contrast images were also taken ex vivo in a human cadaver 10 minutes after intraarticular injection of 25 ml of a 5 mM solution of DAB-4 citrate diluted in PBS. […] All images were performed on a Siemens Skyra 3 Tesla magnet using a 15 channel transmit/receive QED knee coil. (14 cm FOV (field of view); 3 mm thick slice; 384×384 matrix; TR 800 ms; TE 8.6 ms; Turbo factor of 2; receiver bandwidth 350 Hz/pixel.)
# [4] = two weeks post-injection, histology
molecule,measurement,setting,value
DAB-dendrimer-(NH-3-CO-PROXYL)4 [DAB-4 linked nitroxide],Synovial inflammation scoring,rabbit stifle joints; [4],no difference between Magnevist or DAB-4 linked nitroxide and the PBS-injected stifles
same,MTT metabolic activity,[1]; 1-10 mM,less metabolic activity than positive controls but greater than for DAB-8 linked nitroxide
same,agreement of T1 value map with histology stain for GAG concentration,[2],high GAG concentration in the same areas as indicated by DAB-4 linked nitroxide on the T1 value map and the stain on the histology map
DAB-dendrimer-(NH-3-CO-PROXYL)8 [DAB-8 linked nitroxide],MTT metabolic activity,[1]; concentrations above 1 mM,"less metabolic activity than positive controls (untreated), or DAB-4 linked nitroxide and Magnevist"
CNC[C@H](O)[C@@H](O)[C@H](O)[C@H](O)CO.CNC[C@H](O)[C@@H](O)[C@H](O)[C@H](O)CO.O=C([O-])CN(CCN(CC(=O)[O-])CC(=O)O)CCN(CC(=O)[O-])CC(=O)O.[Gd+3] [Magnevist],clinical signs of inflammation or lameness,"rabbit stifle joints; single intra-articular injection, two weeks observation",No animals presented clinical signs of inflammation or lameness
same,Modified Mankin scoring (structural damage / joint degeneration),"rabbit stifle joints; two weeks post-injection, histology, FIG. 6",did not uncover any signs of structural damage and/or degenerative response
same,Synovial inflammation scoring,rabbit stifle joints; [4],no difference between Magnevist or DAB-4 linked nitroxide and the PBS-injected stifles
same,Picogreen cell proliferation,[3],low cell proliferation
same,MTT data normalized to μgDNA/ml (health of the cells),"[1]; 10 mM, FIG. 5",abnormally high
Citric Acid Salt of DAB-4 Linked Nitroxide [DAB-4 linked nitroxide citrate],agreement of T1 value map with histology stain for GAG concentration,[2],high GAG concentration in the same areas indicated by DAB-4 linked nitroxide on the T1 value map and the stain on the histology map
same,T1-weighted MR contrast of joint fluid and cartilage surfaces,human knee,the joint fluid (asterisk) is now bright and outlines the cartilage surfaces
same,detection of cartilage defect on T1-weighted MR image,human knee,A partial thickness cartilage defect (arrow) is easily identified
